This passage reports IC50 results from US10519133B2, “Vinyl compounds as FGFR and VEGFR inhibitors” (MEDSHINE DISCOVERY INC., priority 2015, dated 2019).

Broadly, the IC50 is the concentration at which inhibition is half-maximal. Read a high IC50 as weaker potency in that assay.

Bounds are passed on as bounds.

This assay has as its target T1, FGFR1 (Homo sapiens, UniProt P11362).
T1 construct: purchased Invitrogen PV4105
Put plainly: Z′-LYTE Detection Kinase Assay, in vitro enzymatic activity. The assay is classed as biochemical. The conditions noted are these: 0.6 nM FGFR1, 2 uM Tyr4 peptide, 10 uM ATP, 60 min 23° C. The procedure:
To measure enzyme activity by Z′-LYTE™ Detection Kinase Assay, and to evaluate the inhibitory effect of the compounds on FGFR1 using IC50 value of the compounds as an indicator. […]
Reaction Buffer: 50 mM Hepes (pH 7.5), 10 mM MgCl2, 1 mM EGTA, 0.01% Brij-35, 1 mM DTT, 2 mM MnCl2 0.6 nM FGFR1, 2 uM Tyr4 peptide and 10 uM ATP in reaction buffer (50 mM Hepes, pH 7.5, 10 mM MgCl2, 0.01% BRIJ-35, 1 mM EGTA, 4 mM MnCl2, 2 mM DTT). a. Diluting the compounds with DMSO to 10 mM, 3-fold dilution, 11 gradients, duplicate wells. b. Diluting the compound by 1:25 into middle plate at Bravo Automatic Liquid Station, then transferring 2.5 ul to the reaction plate to ensure the final DMSO concentration to be 1%. c. Transferring 5 ul of enzyme/substrate buffer into each well d. Using Multidrop Liquid Workstation to sequentially add ATP solution to each well e. Centrifuging at 1000 rpm for 1 minute f. Placing the reaction plate in an incubator at 23° C. to react for 60 min. a. Preparing a 1:128 mixture of Development Regent B and Development Buffer b. Adding 5 ul to each well and centrifuging at 1000 rpm for 1 minute c. Placing the reaction plate in a thermostat (23° C.) after centrifuging for 90 minutes, removing and reading on Envision (Perkin Elmer) Plate Reader
D. Analyzing Data: Analyzing Data Using XLFIT (IDBS) and Calculating IC50 Values for the Compounds.

T1 sequence (P11362 22-822): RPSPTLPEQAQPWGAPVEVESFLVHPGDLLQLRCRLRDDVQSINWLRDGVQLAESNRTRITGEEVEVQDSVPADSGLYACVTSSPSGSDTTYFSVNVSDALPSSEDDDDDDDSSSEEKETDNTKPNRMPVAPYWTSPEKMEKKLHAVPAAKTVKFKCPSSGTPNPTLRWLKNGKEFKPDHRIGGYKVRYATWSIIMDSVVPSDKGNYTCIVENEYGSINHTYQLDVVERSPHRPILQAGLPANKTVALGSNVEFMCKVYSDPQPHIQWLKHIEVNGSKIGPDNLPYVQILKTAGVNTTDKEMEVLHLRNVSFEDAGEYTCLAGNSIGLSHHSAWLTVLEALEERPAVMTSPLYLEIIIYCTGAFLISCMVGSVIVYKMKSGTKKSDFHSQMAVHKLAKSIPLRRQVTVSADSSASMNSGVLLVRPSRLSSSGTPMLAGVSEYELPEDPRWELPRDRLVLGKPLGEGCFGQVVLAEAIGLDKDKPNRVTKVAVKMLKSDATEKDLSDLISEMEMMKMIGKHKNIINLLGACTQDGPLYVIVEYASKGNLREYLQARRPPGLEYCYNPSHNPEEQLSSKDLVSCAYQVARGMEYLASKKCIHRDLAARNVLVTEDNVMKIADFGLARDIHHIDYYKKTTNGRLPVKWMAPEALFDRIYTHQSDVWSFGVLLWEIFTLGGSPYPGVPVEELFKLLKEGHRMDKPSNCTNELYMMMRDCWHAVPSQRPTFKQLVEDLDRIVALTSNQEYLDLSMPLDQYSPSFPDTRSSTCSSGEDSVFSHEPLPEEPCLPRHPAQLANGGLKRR

As to `CC(Oc1ccc2[nH]nc(/C=C/c3cc(N)c(CN4CCOCC4)cc3F)c2c1)c1c(Cl)cncc1Cl` (centres unmarked) [Example 61], the IC50 is 0.05 to 1 µM.
The result for `C[C@@H](Oc1ccc2[nH]nc(/C=C(\F)c3ccc(CNC4CCOCC4)nc3)c2c1)c1ccncc1Cl` [Example 142] reads 0.01 to 0.05 µM.
With `CC(Oc1ccc2[nH]nc(/C=C/c3ccc(CN4CCCC(CO)C4)cc3)c2c1)c1c(Cl)cncc1Cl` (centres unmarked) [Example 101], the IC50 was not above 0.01 µM.
The result for `CC(Oc1ccc2[nH]nc(/C=C/c3ccc(CN4CCOC[C@@H]4C)cc3)c2c1)c1c(Cl)cncc1Cl` (some centres unmarked) [Example 107] reads 0.05 to 1 µM; that for `CC(Oc1ccc2[nH]nc(/C=C/c3ccc(CN4CCN(C)CC4)cc3)c2c1)c1c(Cl)cncc1Cl` (centres unmarked) [Example 93], 0.01 to 0.05 µM; that for `CC(Oc1ccc2[nH]nc(/C=C/c3ccc(CNCCN4CCOCC4)cc3)c2c1)c1c(Cl)cncc1Cl` (centres unmarked) [Example 89], not above 0.01 µM.
The result for `CC(Oc1ccc2[nH]nc(/C=C/c3ccc(CN4CCN(C(C)C)CC4)cc3)c2c1)c1c(Cl)cncc1Cl` (centres unmarked) [Example 102] reads not above 0.01 µM.
The result for `C[C@H](Oc1ccc2[nH]nc(/C(O)=C/c3ccc(CN4CCOCC4)nc3)c2c1)c1c(Cl)cncc1Cl` [Example 6] reads 0.05 to 1 µM.
`CC(Oc1ccc2[nH]nc(/C=C/c3ccc(CN4CCOCC4)cc3)c2c1)C1CCN(C)CC1` (centres unmarked) [Example 149] returned an IC50 of 0.05 to 1 µM.
The result for `CC(Oc1ccc2[nH]nc(/C=C/c3ccc(CN4CCOCC4)c(C(F)(F)F)c3)c2c1)c1c(Cl)cncc1Cl` (centres unmarked) [Example 64] reads 0.05 to 1 µM; that for `C[C@@H](Oc1ccc2[nH]nc(/C=C/c3ccc(CN4CCOCC4)nc3)c2c1)c1c(Cl)cncc1Cl` [Example 137], not above 0.01 µM.
In the case of `C[C@H](Oc1ccc2[nH]nc(/C=C(\F)c3ccc(CN4CCC(CO)CC4)nc3)c2c1)c1c(Cl)cncc1Cl` [Example 22], the IC50 was in the range of 0.01 to 0.05 µM.
In turn, `CC(Oc1ccc2[nH]nc(/C=C/c3ccc(CN4CCC(O)C4)cc3)c2c1)c1c(Cl)cncc1Cl` (centres unmarked) [Example 106] registered an IC50 not above 0.01 µM.
Compound `C[C@@H](Oc1ccc2[nH]nc(/C=C/c3ccc(CN4CC[C@H](O)C4)nc3)c2c1)c1c(Cl)cncc1Cl` [Example 138] returned an IC50 not above 0.01 µM.
As for `Cc1cc(/C=C/c2n[nH]c3ccc(OC(C)c4c(Cl)cncc4Cl)cc23)ccc1CN1CCOCC1` (centres unmarked) [Example 58], the figure is 0.05 to 1 µM; as for `CC(Oc1ccc2[nH]nc(/C=C/c3ccc(CN4CCC(O)CC4)cc3)c2c1)c1c(Cl)cncc1Cl` (centres unmarked) [Example 72], not above 0.01 µM.
As for `C[C@@H](Oc1ccc2[nH]nc(/C=C(\F)c3ccc(CN4CCC(O)C4)nc3)c2c1)c1c(Cl)cncc1Cl` (some centres unmarked) [Example 31], the figure is not above 0.01 µM; as for `CNC(=O)C1CCN(Cc2ccc(/C=C/c3n[nH]c4ccc(OC(C)c5c(Cl)cncc5Cl)cc34)cc2)CC1` (centres unmarked) [Example 103], not above 0.01 µM; as for `C[C@@H](Oc1ccc2[nH]nc(/C=C(\F)c3ccc(CN[C@H]4C[C@H](O)C4)nc3)c2c1)c1c(Cl)cncc1Cl` [Example 26], 0.01 to 0.05 µM.
`CC(Oc1ccc2[nH]nc(/C=C/c3ccc(CN(C)Cc4ccccc4)cc3)c2c1)c1c(Cl)cncc1Cl` (centres unmarked) [Example 94] showed an IC50 of 0.05 to 1 µM.
As for `CC(=O)N(C)C1CCN(C(=O)c2ccc(-c3n[nH]c4ccc(OC(C)c5c(Cl)cncc5Cl)cc34)cc2)C1` (centres unmarked) [Example 120], the figure is 0.05 to 1 µM; as for `CC(Oc1ccc2[nH]nc(/C=C/c3ccc(CN4CCOCC4)nn3)c2c1)c1c(Cl)cncc1Cl` (centres unmarked) [Example 66], not above 0.01 µM.
As for `C[C@H](Oc1ccc2[nH]nc(/C=C(\F)c3ccc(CN4CCC(O)C4)nc3)c2c1)c1c(Cl)cncc1Cl` (some centres unmarked) [Example 23], the figure is not above 0.01 µM; as for `C[C@@H](Oc1ccc2[nH]nc(/C=C(\F)c3ccc(OC4CCOCC4)nc3)c2c1)c1c(Cl)cncc1Cl` [Example 36], 0.05 to 1 µM; as for `CC(Oc1ccc2[nH]nc(-c3ccc(C(=O)N4CCOCC4)cc3)c2c1)c1c(Cl)cncc1Cl` (centres unmarked) [Example 113], 0.05 to 1 µM.
The compound `CC(Oc1ccc2[nH]nc(-c3ccc(C(=O)N4CCC(O)CC4)cc3)c2c1)c1c(Cl)cncc1Cl` (centres unmarked) [Example 114] had an IC50 of 0.05 to 1 µM.
`CC(Oc1ccc2[nH]nc(/C(F)=C/c3ccc(CN4CCC(O)C4)nc3)c2c1)c1c(Cl)cncc1Cl` (centres unmarked) [Example 12] yielded an IC50 of 0.01 to 0.05 µM.
In turn, `CC(Oc1ccc2[nH]nc(/C=C/c3ccc(CN4CCC(c5ccccc5)CC4)cc3)c2c1)c1c(Cl)cncc1Cl` (centres unmarked) [Example 82] displayed an IC50 of 0.05 to 1 µM.
The result for `CC(Oc1ccc2[nH]nc(/C=C/c3ccc(CN4CCOC(CO)C4)cc3)c2c1)c1c(Cl)cncc1Cl` (centres unmarked) [Example 88] reads 0.01 to 0.05 µM; that for `CCN(Cc1ccc(/C(F)=C/c2n[nH]c3ccc(O[C@H](C)c4c(Cl)cncc4Cl)cc23)cn1)C1CCOCC1` [Example 18b], not above 0.01 µM.
For `C[C@@H](Oc1ccc2[nH]nc(/C=C(\F)c3ccc(OC4CCNCC4)nc3)c2c1)c1c(Cl)cncc1Cl` [Example 43], the IC50 is not above 0.01 µM.
The result for `CC(Oc1ccc2[nH]nc(/C=C/c3ccc(CNc4ccccc4)cc3)c2c1)c1c(Cl)cncc1Cl` (centres unmarked) [Example 99] reads 0.05 to 1 µM.
As for `C[C@@H](Oc1ccc2[nH]nc(-c3cccc(C(=O)NC4CCOCC4)c3)c2c1)c1c(Cl)cncc1Cl` [Example 127], the figure is 0.05 to 1 µM.
As for `CCN(Cc1ccccc1)Cc1ccc(/C=C/c2n[nH]c3ccc(OC(C)c4c(Cl)cncc4Cl)cc23)cc1` (centres unmarked) [Example 95], the figure is 0.05 to 1 µM; as for `C[C@@H](Oc1ccc2[nH]nc(/C=C(\F)c3ccc(O[C@H]4CCOC4)nc3)c2c1)c1c(Cl)cncc1Cl` [Example 37], 0.05 to 1 µM.
On to `CC(Oc1ccc2[nH]nc(/C=C/c3ccc(CN4CCN(c5ccccc5)CC4)cc3)c2c1)c1c(Cl)cncc1Cl` (centres unmarked) [Example 83], for which the IC50 lay in the range of 0.05 to 1 µM.
As for `CC(Oc1ccc2[nH]nc(/C=C/c3ccc(CN4CCC(CO)CC4)cc3)c2c1)c1c(Cl)cncc1Cl` (centres unmarked) [Example 74], the figure is not above 0.01 µM; as for `C[C@@H](Oc1ccc2[nH]nc(/C=C/c3ccc(CN4CCOCC4)nn3)c2c1)c1c(Cl)cncc1Cl` [Example 67], not above 0.01 µM.
The result for `CC1CN(C(=O)c2ccc(-c3n[nH]c4ccc(OC(C)c5c(Cl)cncc5Cl)cc34)cc2)CCN1` (centres unmarked) [Example 112] reads 0.05 to 1 µM.
The result for `CC(Oc1ccc2[nH]nc(-c3ccc(C(=O)N4CCC(O)C4)cc3)c2c1)c1c(Cl)cncc1Cl` (centres unmarked) [Example 119] reads 0.05 to 1 µM; that for `CC(Oc1ccc2[nH]nc(/C=C/c3ccc(CN4CCCOCC4)cc3)c2c1)c1c(Cl)cncc1Cl` (centres unmarked) [Example 100], not above 0.01 µM.
Compound `C[C@@H](Oc1ccc2[nH]nc(-c3cccc(C(=O)N4CCC(CO)CC4)c3)c2c1)c1c(Cl)cncc1Cl` [Example 130] had an IC50 of 0.05 to 1 µM.
Consider `CC(Oc1ccc2[nH]nc(/C(F)=C/c3ccc(CNCCN4CCOCC4)nc3)c2c1)c1c(Cl)cncc1Cl` (centres unmarked) [Example 11], for which the IC50 is 0.05 to 1 µM.
`CC1CN(Cc2ccc(/C=C/c3n[nH]c4ccc(OC(C)c5c(Cl)cncc5Cl)cc34)cc2)CCN1` (centres unmarked) [Example 97] displayed an IC50 not above 0.01 µM.
